# From patent US20080051466A1, “Isoalpha acid based protein kinase modulation cancer treatment” (Metaproteomics, LLC, priority 2006, published 2008)
# What was measured:
# Experiment in all cases: KinaseProfiler Assay
# [1] = target: TrkB (Homo sapiens, UniProt Q16620); assay type: biochemical; settings: read-out: TrkB, % of Control
# [2] = target: T1, JAK3 (Homo sapiens, UniProt P52333); assay type: biochemical; settings: read-out: JAK3, % of Control
# T1 sequence (P52333 1-1124): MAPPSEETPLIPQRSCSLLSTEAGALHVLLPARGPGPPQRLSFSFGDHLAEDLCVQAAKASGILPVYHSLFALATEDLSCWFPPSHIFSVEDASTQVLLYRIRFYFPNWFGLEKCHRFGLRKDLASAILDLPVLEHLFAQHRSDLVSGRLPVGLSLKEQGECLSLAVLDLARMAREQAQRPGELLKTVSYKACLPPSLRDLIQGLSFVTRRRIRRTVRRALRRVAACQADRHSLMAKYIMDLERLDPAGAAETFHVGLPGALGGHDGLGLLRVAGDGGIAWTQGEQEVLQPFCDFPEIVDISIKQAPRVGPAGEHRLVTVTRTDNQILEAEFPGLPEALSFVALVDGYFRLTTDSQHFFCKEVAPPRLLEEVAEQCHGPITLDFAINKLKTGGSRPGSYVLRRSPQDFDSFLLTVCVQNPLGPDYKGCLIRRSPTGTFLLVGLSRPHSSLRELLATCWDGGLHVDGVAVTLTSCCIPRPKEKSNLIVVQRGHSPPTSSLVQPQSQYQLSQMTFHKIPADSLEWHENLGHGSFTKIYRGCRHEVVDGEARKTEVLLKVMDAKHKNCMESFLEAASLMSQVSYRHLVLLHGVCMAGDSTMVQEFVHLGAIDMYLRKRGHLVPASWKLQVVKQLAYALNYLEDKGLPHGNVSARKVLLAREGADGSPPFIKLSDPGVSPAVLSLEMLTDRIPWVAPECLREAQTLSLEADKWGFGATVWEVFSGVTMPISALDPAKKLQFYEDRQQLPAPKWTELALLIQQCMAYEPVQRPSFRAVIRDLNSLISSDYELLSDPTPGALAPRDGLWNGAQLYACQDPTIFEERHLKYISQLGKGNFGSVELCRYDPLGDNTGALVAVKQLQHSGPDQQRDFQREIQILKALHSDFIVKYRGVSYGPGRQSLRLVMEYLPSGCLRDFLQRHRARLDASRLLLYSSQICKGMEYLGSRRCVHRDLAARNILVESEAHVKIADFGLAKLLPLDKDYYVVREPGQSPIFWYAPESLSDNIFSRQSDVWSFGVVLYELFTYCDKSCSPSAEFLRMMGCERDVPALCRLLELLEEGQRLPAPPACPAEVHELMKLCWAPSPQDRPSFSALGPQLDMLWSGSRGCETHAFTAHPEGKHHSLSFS
# [3] = target: CDK2/cyclinA (Homo sapiens, UniProt P24941); assay type: biochemical; settings: read-out: CDK2/cyclinA, % of Control
# [4] = target: Ros (Homo sapiens, UniProt P08922); assay type: biochemical; settings: read-out: Ros, % of Control
# [5] = target: CK1δ (Homo sapiens, UniProt P48730); assay type: biochemical; settings: read-out: CK1δ, % of Control
# [6] = target: ALK4 (Homo sapiens, UniProt P36896); assay type: biochemical; settings: read-out: ALK4, % of Control
# [7] = target: Rsk2 (Homo sapiens, UniProt P51812); assay type: biochemical; settings: read-out: Rsk2, % of Control
# [8] = target: MSSK1 (Homo sapiens, UniProt Q9UPE1); assay type: biochemical; settings: read-out: MSSK1, % of Control
# [9] = target: PKBβ (Homo sapiens, UniProt P31751); assay type: biochemical; settings: read-out: PKBβ, % of Control
# [10] = target: CaMKI (Homo sapiens, UniProt Q14012); assay type: biochemical; settings: read-out: CaMKI, % of Control
# [11] = target: CDK1/cyclinB (Homo sapiens, UniProt P06493); assay type: biochemical; settings: read-out: CDK1/cyclinB, % of Control
# [12] = target: PKA(b) (Bos taurus, UniProt P00517); assay type: biochemical, human; settings: read-out: PKA(b), % of Control
# [13] = target: CK1γ1 (Homo sapiens, UniProt Q9HCP0); assay type: biochemical; settings: read-out: CK1γ1, % of Control
# [14] = target: CK1γ2 (Homo sapiens, UniProt P78368); assay type: biochemical; settings: read-out: CK1γ2, % of Control
# Chain of CK1γ2 (P78368 whole entry): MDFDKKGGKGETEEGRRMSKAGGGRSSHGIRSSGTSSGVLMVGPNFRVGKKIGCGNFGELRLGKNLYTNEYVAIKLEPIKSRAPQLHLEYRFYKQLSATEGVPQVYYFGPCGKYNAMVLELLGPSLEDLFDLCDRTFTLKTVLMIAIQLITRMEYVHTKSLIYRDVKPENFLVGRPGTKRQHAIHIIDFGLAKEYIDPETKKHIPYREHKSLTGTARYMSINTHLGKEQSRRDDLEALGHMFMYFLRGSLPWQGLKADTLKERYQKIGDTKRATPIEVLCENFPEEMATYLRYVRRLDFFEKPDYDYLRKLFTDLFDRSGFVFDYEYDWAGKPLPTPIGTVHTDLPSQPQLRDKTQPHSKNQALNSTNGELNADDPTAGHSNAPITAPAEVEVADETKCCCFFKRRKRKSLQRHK
# Chain of PKBβ (P31751 whole entry): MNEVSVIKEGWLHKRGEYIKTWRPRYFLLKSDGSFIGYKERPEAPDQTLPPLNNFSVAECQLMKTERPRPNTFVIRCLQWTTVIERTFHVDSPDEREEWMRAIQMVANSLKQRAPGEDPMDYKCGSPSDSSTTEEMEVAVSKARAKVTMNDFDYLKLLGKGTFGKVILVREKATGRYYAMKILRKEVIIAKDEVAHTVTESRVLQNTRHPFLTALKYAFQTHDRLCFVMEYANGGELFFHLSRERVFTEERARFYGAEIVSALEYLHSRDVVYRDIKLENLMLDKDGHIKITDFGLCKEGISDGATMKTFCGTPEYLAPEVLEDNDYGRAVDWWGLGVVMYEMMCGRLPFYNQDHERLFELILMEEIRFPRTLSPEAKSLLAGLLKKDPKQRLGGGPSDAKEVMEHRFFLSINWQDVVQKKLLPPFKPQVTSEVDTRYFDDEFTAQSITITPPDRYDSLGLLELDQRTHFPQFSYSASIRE
# Chain of MSSK1 (Q9UPE1 whole entry): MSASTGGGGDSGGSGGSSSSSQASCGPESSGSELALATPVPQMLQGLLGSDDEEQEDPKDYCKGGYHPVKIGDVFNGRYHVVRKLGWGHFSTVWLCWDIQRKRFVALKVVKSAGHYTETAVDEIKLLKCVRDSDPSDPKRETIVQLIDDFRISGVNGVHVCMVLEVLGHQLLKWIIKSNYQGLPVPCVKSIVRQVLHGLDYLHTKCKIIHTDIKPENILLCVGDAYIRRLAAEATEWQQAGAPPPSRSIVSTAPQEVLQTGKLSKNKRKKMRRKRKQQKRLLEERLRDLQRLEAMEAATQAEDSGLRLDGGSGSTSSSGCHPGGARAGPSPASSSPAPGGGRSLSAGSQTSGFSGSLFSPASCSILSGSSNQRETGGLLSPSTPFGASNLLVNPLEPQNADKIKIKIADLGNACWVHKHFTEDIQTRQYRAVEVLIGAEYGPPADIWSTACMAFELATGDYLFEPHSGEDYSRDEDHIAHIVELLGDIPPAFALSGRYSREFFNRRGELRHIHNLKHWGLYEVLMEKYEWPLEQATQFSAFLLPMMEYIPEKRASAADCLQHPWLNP
# Chain of Rsk2 (P51812 whole entry): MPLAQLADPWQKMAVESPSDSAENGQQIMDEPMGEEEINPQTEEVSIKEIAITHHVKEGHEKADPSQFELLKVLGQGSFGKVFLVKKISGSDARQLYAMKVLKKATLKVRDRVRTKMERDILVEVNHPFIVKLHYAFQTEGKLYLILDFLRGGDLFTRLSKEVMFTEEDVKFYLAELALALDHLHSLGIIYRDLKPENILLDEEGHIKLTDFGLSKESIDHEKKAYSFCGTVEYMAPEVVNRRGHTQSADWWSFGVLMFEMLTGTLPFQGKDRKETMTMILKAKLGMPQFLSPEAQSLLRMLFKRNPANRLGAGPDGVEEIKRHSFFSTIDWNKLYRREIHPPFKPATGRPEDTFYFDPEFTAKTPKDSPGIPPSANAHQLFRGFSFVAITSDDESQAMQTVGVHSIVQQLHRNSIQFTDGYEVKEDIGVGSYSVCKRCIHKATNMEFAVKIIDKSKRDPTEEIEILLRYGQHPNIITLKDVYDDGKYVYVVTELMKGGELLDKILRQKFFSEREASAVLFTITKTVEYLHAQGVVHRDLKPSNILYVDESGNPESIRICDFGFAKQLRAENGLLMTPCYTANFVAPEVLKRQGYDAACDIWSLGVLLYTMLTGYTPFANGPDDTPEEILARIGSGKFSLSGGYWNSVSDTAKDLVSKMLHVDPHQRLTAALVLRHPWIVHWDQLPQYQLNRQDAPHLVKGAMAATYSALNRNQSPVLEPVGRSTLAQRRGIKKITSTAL
# Chain of Ros (P08922 28-2347): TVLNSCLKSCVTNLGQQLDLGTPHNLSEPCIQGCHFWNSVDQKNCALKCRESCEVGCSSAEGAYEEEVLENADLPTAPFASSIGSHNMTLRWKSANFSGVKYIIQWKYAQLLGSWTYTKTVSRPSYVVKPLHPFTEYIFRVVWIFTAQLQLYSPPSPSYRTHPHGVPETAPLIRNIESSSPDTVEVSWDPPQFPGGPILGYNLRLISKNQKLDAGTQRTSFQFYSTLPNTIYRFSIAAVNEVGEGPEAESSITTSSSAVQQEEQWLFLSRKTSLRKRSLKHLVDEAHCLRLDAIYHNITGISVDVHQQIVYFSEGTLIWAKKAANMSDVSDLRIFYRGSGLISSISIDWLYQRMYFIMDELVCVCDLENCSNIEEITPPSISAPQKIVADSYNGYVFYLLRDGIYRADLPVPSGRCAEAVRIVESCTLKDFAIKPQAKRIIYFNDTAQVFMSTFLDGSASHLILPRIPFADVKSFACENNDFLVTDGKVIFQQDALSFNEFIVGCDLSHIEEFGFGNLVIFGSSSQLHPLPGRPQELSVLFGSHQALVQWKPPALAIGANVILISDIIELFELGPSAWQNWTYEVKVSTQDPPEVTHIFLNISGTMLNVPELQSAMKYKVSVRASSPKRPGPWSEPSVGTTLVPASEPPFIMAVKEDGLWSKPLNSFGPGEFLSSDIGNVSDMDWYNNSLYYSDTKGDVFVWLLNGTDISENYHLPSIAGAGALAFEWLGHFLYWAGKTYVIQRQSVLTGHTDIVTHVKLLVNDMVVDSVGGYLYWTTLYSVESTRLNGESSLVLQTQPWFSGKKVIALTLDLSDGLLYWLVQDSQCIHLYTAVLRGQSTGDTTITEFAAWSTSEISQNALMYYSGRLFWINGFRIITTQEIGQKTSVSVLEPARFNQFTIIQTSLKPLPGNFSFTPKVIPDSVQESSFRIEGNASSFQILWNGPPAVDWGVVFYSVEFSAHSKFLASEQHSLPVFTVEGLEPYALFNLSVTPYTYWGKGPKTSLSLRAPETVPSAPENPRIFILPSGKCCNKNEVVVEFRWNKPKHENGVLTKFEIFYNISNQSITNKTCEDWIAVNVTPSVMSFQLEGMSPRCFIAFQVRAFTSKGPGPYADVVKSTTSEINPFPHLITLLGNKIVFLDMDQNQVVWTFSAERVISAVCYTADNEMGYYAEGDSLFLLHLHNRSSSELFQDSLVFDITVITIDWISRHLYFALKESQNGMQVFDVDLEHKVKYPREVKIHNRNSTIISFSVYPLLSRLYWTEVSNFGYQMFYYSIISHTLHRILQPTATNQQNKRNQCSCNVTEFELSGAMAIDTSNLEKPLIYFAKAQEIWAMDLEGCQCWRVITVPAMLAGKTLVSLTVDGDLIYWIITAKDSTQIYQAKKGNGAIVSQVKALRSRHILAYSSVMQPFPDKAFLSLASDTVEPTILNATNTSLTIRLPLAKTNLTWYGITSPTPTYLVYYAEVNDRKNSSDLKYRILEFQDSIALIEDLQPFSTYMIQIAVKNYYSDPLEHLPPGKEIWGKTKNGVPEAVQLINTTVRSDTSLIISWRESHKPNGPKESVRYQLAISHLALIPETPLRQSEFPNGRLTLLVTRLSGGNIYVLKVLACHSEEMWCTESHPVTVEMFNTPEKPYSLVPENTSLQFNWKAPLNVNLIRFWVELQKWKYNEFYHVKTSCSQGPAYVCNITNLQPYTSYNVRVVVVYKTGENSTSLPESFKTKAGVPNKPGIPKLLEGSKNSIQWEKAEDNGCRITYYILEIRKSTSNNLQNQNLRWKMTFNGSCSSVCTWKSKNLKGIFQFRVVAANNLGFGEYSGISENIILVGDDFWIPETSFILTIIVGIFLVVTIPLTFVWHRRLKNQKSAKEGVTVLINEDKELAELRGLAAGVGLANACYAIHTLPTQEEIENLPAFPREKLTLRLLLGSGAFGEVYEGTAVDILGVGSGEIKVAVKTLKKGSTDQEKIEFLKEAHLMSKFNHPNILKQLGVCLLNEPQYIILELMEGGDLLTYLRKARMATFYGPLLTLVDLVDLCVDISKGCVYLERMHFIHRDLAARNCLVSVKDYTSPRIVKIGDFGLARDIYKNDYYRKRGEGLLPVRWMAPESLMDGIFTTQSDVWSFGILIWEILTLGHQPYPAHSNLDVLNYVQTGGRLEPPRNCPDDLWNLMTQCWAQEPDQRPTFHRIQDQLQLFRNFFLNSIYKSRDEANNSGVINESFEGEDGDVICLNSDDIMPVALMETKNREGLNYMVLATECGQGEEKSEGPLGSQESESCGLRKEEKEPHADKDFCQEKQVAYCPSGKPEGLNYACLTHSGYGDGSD
# Chain of CK1γ1 (Q9HCP0 whole entry): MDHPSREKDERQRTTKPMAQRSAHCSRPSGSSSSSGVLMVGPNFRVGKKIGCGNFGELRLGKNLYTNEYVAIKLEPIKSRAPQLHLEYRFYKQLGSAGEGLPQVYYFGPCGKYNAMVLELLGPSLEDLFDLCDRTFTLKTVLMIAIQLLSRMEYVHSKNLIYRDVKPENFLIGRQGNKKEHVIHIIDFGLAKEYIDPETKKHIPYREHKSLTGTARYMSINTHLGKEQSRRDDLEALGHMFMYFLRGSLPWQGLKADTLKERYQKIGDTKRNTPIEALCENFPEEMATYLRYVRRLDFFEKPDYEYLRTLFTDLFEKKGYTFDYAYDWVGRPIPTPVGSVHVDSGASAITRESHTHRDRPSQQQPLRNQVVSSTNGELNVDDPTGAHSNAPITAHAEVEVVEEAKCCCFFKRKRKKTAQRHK
smiles,measurement,setting,value
"COc1cc(O)c(CC=C(C)C)c(O)c1C(=O)/C=C/c1ccc(O)cc1 [Xanthohumol, xanthohumol]",remaining activity at 1 µg/mL,[1]; 1 ug/ml,95%
same,remaining activity at 5 µg/mL,[1]; 5 ug/ml,89%
same,remaining activity at 25 µg/mL,[1]; 25 ug/ml,58%
same,remaining activity at 50 µg/mL,[1]; 50 ug/ml,3%
same,remaining activity at 1 µg/mL,[2]; 1 ug/ml,104%
same,remaining activity at 5 µg/mL,[2]; 5 ug/ml,84%
same,remaining activity at 25 µg/mL,[2]; 25 ug/ml,17%
same,remaining activity at 50 µg/mL,[2]; 50 ug/ml,5%
same,remaining activity at 1 µg/mL,[3]; 1 ug/ml,107%
same,remaining activity at 5 µg/mL,[3]; 5 ug/ml,96%
same,remaining activity at 25 µg/mL,[3]; 25 ug/ml,57%
same,remaining activity at 50 µg/mL,[3]; 50 ug/ml,6%
same,remaining activity at 1 µg/mL,[4]; 1 ug/ml,101%
same,remaining activity at 5 µg/mL,[4]; 5 ug/ml,99%
same,remaining activity at 25 µg/mL,[4]; 25 ug/ml,85%
same,remaining activity at 50 µg/mL,[4]; 50 ug/ml,94%
same,remaining activity at 5 µg/mL,[5]; 5 ug/ml,32%
same,remaining activity at 25 µg/mL,[5]; 25 ug/ml,16%
same,remaining activity at 50 µg/mL,[5]; 50 ug/ml,12%
same,remaining activity at 1 µg/mL,[6]; 1 ug/ml,116%
same,remaining activity at 25 µg/mL,[6]; 25 ug/ml,71%
same,remaining activity at 1 µg/mL,[7]; 1 ug/ml,96%
same,remaining activity at 5 µg/mL,[7]; 5 ug/ml,43%
same,remaining activity at 25 µg/mL,[7]; 25 ug/ml,3%
same,remaining activity at 1 µg/mL,[8]; 1 ug/ml,47%
same,remaining activity at 5 µg/mL,[8]; 5 ug/ml,11%
same,remaining activity at 25 µg/mL,[8]; 25 ug/ml,7%
same,remaining activity at 50 µg/mL,[8]; 50 ug/ml,5%
same,remaining activity at 1 µg/mL,[9]; 1 ug/ml,146%
same,remaining activity at 5 µg/mL,[9]; 5 ug/ml,102%
same,remaining activity at 25 µg/mL,[9]; 25 ug/ml,1%
same,remaining activity at 50 µg/mL,[9]; 50 ug/ml,8%
same,remaining activity at 1 µg/mL,[10]; 1 ug/ml,142%
same,remaining activity at 25 µg/mL,[10]; 25 ug/ml,3%
same,remaining activity at 1 µg/mL,[11]; 1 ug/ml,118%
same,remaining activity at 5 µg/mL,[11]; 5 ug/ml,103%
same,remaining activity at 25 µg/mL,[11]; 25 ug/ml,46%
same,remaining activity at 50 µg/mL,[11]; 50 ug/ml,18%
same,remaining activity at 1 µg/mL,[12]; 1 ug/ml,137%
same,remaining activity at 25 µg/mL,[12]; 25 ug/ml,33%
same,remaining activity at 1 µg/mL,[13]; 1 ug/ml,101%
same,remaining activity at 5 µg/mL,[13]; 5 ug/ml,79%
same,remaining activity at 25 µg/mL,[13]; 25 ug/ml,50%
same,remaining activity at 50 µg/mL,[13]; 50 ug/ml,26%
same,remaining activity at 1 µg/mL,[14]; 1 ug/ml,92%
same,remaining activity at 5 µg/mL,[14]; 5 ug/ml,48%
same,remaining activity at 25 µg/mL,[14]; 25 ug/ml,30%
same,remaining activity at 50 µg/mL,[14]; 50 ug/ml,12%
